Here are results for one molecule from patent publication US9066880B2, “Use of dihydrodehydrodiisoeugenol and preparations comprising dihydrodehydrodiisoeugenol” (SYMRISE AG, priority 2010, dated 2015).

In experiment [1] the test system is 3T3-L1-cells (mouse embryonic fibroblast-like preadipocytes cell line). As to the kind of experiment: Lipolysis assay (in vitro), free glycerol in supernatant. The settings on record: added at day 10 for 20 hours, basal lipolysis = 100%. It counts as cell-based. Here is the method: 3T3-L1-cells (mouse embryonic fibroblast-like preadipocytes cell line) were propagated in Dulbecco's Modified Eagle Medium (DMEM), enriched with 10% newborn calf serum (CS) at 37° C. and 5% CO2 and seeded in 48-well plates for lipolysis. After reaching confluence at day −2 the differentiation was induced by changing medium at day 0 to DMEM with 10% fetal calf serum (FCS) containing a hormone mix (HM) of 1 μg/ml insulin, 0.25 μM dexamethasone (Dex) and 0.5 mM 3-isobutyl-1-methylxanthine (IBMX). Medium is renewed every other day. At day 2, medium consisting of DMEM, 10% FCS and 1 μg/ml insulin is added. From day 4 on, only DMEM containing 10% FCS is used for further cultivation of cells. For determination of lipolysis, compounds of interest are added at day 10 for 20 hours mixed with bovine serum albumin (BSA). If lipolysis occurs, cells secrete glycerol into the supernatant. Therefore, supernatants are harvested and determination of lipolysis is performed by using a free glycerol reagent. The quantification of the free glycerol is carried out on the basis of an enzymatic method with a free glycerol reagent.
The lipolysis in the presence of the test substances is calculated according to the following equation:
[formula] wherein • A test substance=absorption of the wells with test substance and with cells • A control=absorption of the wells without test substance, but with cells • A control without cells=absorption of the wells without test substance and without cells

Experiment [2] concerns the target T1, Cyclooxygenase-2 (COX-2) (Homo sapiens, UniProt P35354).
T1 sequence (P35354 18-604): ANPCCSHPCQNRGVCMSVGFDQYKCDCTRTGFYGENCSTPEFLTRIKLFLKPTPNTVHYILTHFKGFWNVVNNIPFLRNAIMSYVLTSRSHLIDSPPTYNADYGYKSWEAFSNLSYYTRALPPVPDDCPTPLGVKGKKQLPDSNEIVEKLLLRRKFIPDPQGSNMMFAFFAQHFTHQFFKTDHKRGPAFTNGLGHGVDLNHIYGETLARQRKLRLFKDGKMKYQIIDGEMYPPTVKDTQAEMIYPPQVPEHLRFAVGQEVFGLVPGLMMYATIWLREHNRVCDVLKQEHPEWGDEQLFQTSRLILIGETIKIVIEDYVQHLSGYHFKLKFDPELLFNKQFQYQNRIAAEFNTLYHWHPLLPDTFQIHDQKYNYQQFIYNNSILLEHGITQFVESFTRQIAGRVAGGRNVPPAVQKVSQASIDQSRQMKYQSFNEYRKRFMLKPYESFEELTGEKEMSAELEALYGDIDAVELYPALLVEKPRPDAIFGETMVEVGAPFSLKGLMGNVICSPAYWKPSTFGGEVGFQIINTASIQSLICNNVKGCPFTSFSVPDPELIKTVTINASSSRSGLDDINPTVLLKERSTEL
Nature of the experiment: COX-2-Assay (in vitro), fluorometric ADHP/resorufin. It is filed as biochemical. The settings on record: average of at least 2 independent experiments. The source says:
Cyclooxygenase-2 (COX-2) in the presence of test substance is mixed with the fluorometric substrate 10-acetyl-3,7-dihydroxyphenoxanin (ADHP) and Heme. The reaction is started by addition of the substrate arachidonic acid.
COX-2 converts the arachidonic acid into the prostaglandin endoperoxide G2 (PGG2). PGG2 is reduced to the corresponding alcohol PGH2. During this reaction ADHP results in fluorescent resorufin. Resorufin is quantified at an extinction wavelength of 535 nm and an emission wavelength of 590 nm.
[formula] where • Resorufin test substance=Resorufin concentration of the wells with test substance and with COX-2 • Resorufin control=Resorufin concentration of the wells without test substance, but with COX-2 • Resorufin control without COX-2=Resoruf in concentration of the wells without test substance and without COX-2
From the inhibition of the COX-2[%] in a series of dilutions of tested samples the IC50 is calculated. This is the concentration at which the activity of the COX-2 is inhibited by 50%.

Regarding `CCCc1cc(OC)c2c(c1)C(C)C(c1ccc(O)c(OC)c1)O2` (stereo not drawn) [compound of formula (I), 2-Methoxy-4-(7-methoxy-3-methyl-5-propyl-2,3-dihydro-benzofuran-2-yl)-phenol], the “Relative lipolysis compared to basal lipolysis” value was 85% ± 1.6 in experiment [1] (1 μM) and 85% ± 1.5 in experiment [1] (10 μM). The “IC50 calculated from the inhibition of COX-2” value in experiment [2] is 12.3 ppm.
